# Measured values taken from patent publication US6265423A, “Aromatic polycyclic retinoid-type derivatives, method for preparing same, and use thereof for making pharmaceutical and cosmetic compositions” (priority 1996, dated 2001).
# Key:
# RARβ-ERcassette = assay: Transactivation, chimerical receptor RARβ-ERcassette (HeLa); format: cell-based; conditions: TTNPB 10^-8 M = 100
# Source text: (§1) The HeLa cells are co-transfected by a plasmid which codes for a retinoic receptor in which the C domain of bonding to the DNA is substituted by that of the receptor to RE oestrogens, and a plasmid which places the expression of the luciferase under the control of an ERE (Element of Response to Oestrogens). The expressed chimerical receptors are designated as RARα-ERcassette, RARβ-ERcassette, RARγ-ERcassette and RXRα-ERcassette. The A, B, D, E and F regions of the natural receptor are preserved as well as the transcriptional co-operation between the activation domains AF-1 and AF-2. These transitory transfection experiments follow the method of co-precipitation to calcium phosphate. The HeLa cells are co-transfected by […] of plasmid coding for the chimerical receptor, […] of reporter plasmid and […] of expression vector CMV-β-galactosidase used as an internal control of transfection. 24 hours after the transfection, the cells are incubated for 16 hours with the different effectors.
# (§2) In this type of chimerical receptor, the C domain of bonding to the DNA of RAR is substituted by that of the receptor to the RE oestrogens. The protein obtained is close to the natural RAR receptor and preserves the transcriptional properties of the AF-1 and AF-2 domains. It modulates the transcription by means of an ERE. This RAR-ERcassette model allows one to observe a transcriptional response to a more physiological ligand.
# RAR and RXR receptors = assay: RAR/RXR activity profile drawn from the models; format: cell-based
# Source text: The reference molecules have allowed one to show the effectiveness and the complementary nature of the different models used and lead to the following conclusions: chimerical constructions GAL-RAR and RAR-ERcassette allow the determination of the RAR agonist profile of molecules, but also an RXR agonist activity with RAR-ERcassette, the HRLN lineage mainly conveys the activity of a compound mediated by endogenic RARα, the HRL+N lineage also provides evidence of an RXR agonist activity of the retinoids, the anti-oestrogenic effect of the retinoids (oestrogen-induced cellular proliferation and MELN lineage) is mediated by RARα, the anti-AP-1 effect is mediated in the MCF-7 cells (MTLN lineage) by RARα, RARγ and RXRα, and an additive effect exists between the RAR and RXR routes.
# RARγ-ERcassette = assay: Transactivation, chimerical receptor RARγ-ERcassette (HeLa); format: cell-based; conditions: TTNPB 10^-8 M = 100
# Source text: as §1, §2
# [1] = tested on: ERE-βGlob-Luc, MELN lineage (MCF-7); assay: Anti-oestrogenic effect, MELN lineage activated by estradiol; format: cell-based, human
# Source text: (§3) Certain properties of the retinoids have been determined using more developed cellular models. These models consist of cellular lineages transfected in a stable fashion by recombinant plasmids which place the expression of the gene of the luciferase under the control of different nuclear response elements. […] The tests carried out in duplicate are described below for each of these models.
# MCF-7 cells express RARα,γ and RXRα. The transfection of MCF-7 cells by an oestrogen-dependent gene (ERE-βGlob-Luc) has permitted the establishment of the MELN cellular lineage, used to determine the anti-oestrogenic activity of the retinoids. These cells contain the gene of the luciferase under the transcriptional control of the promoter of the βGlobine and of the response element ERE isolated from the gene of chicken vitelogenine A2. The experiments are carried out with MELN cells activated by 10^-9 M estradiol. The level of base activity of the MELN cells is obtained with the anti-oestrogen 1 μM 4-OH-tamoxifen (hydroxytamoxifen).
# The effect of the products tested on the cells activated by 10^-9 M estradiol is expressed as a percentage, the level of base activity being deducted.
# [2] = tested on: AP-1, MTLN lineage (MCF-7); assay: Anti-AP-1 effect, MTLN lineage activated by TPA; format: cell-based, human
# Method: as §3
# The anti-factor AP-1 transrepressor effect of retinoids is determined using the MTLN lineage, coming from MCF-7 cells transfected in a stable fashion by a vector p(TRE)3 -tk-Luc which places the expression of the gene of luciferase under the control of […]. TPA activates the AP-1 complex formed from proteins of the family of nuclear proto-oncogenes (c-Jun and c-Fos). […] The experiments are made with the MTLN cells activated by 10^-7 M TPA.
# The effect of the compounds on the MTLN cells activated by 10^-7 M TPA is expressed as a percentage. […] The inhibitive properties of the products are calculated after deduction of the base activity of the cells. The percentages reported correspond to a range of inhibitions determined from several experiments.
# [3] = tested on: RAR-ERcassettes (RARα, RARβ, RARγ); assay: Chimerical receptors RAR-ERcassettes, overall profile; format: cell-based
# Source text: as §1, §2
# RARα-ERcassette = assay: Transactivation, chimerical receptor RARα-ERcassette (HeLa); format: cell-based; conditions: TTNPB 10^-8 M = 100
# Source text: as §1, §2
# T-47D cells = assay: Effect on oestrogen-induced proliferation of T-47D cells; format: cell-based, human; conditions: Homo sapiens, T47D, 168 h; 10^-6 M; 100% = E2 10^-9 M, 7 days; read-out: growth of T-47D cells
# Method: (§4) MCF-7 cells and HeLa are cultivated in DMFM with phenol red to which 5% foetal calf serum is added. The T47-D cells are cultivated in RPMI to which 10% foetal calf serum is added. The experimental tests are carried out in DMEM without phenol red to which foetal calf serum treated with dextran carbon is added at 3%. […] The experiments using the different retinoids are carried out sheltered from the light so as to avoid any isomerisation.
# So as to test the anti-proliferation effect of the retinoids, growth experiments under oestrogenic conditions were carried out on cells MCF-7 and T-47D. These are the human oestrogen-dependent mammary cancer cells which express the receptor to RE oestrogens. The effect of the molecules is evaluated after 7 days of culture in oestrogenic conditions (estradiol 10^-9 M) by dosing the cellular DNA. The cells are distributed in 24 well plates at a density of 2×10^4 cells per well. The tests with the different retinoids are carried out in triplicate and the culture medium is changed after 4 days of growth.
# [4] = tested on: response element RARE of RARβ gene, endogenic retinoic receptors, HRLN lineage; assay: HRLN transactivation (RARE-luciferase, stably transfected HeLa); format: cell-based
# Method: as §4, §3
# The cellular lineages HRLN and HRL+N allow one to study the activation of an RARE by endogenic receptors using ligands at physiological concentrations. These lineages derive from HeLa cells transfected in a stable fashion by a reporter gene which places the expression of the gene of the luciferase under the control of a nuclear response element RARE (RARE3 -tk-Luc). The HeLa cells express all the known receptors of the retinoic acid (RARα,β,γ and RXRα,β,γ) with a predominance of RARα and RXRα. The response element RARE used for the HRLN cells corresponds to the sequence of the natural gene of the RARβ receptor (GGTTCAnnnnnAGTTCA). The HRL+N cells comprise the sequence GAGTGAnnnnnCGGTGA.
# This lineage comprises the response element RARE of the natural gene of the RARβ receptor which controls the expression of the gene of the luciferase.
# [5] = tested on: ZR-75-1 human mammary cancer cells; assay: MTT test, proliferation of ZR-75-1; format: cell-based
# Method: (§5) The cells that were cultured came from the ATCC (American Type Culture Collection).
# (§6) The cellular lines are kept in culture in a monolayer at 37° C. in closed culture dishes (Nunc. Gibco BRL, Life Technologies, Belgium) containing the minimum essential medium (MEM, Gibco) supplemented with 5% of Foetal Calf Serum, (FCS, Gibco), 0.6 mg/ml of glutamine (Gibco) and a mixture of 200 IU/mi of penicillin (Gibco), 200 μg/ml of streptomycin (Gibco) and 0.1 mg/ml of gentamycin (Gibco). The foetal calf serum is decomplemented for 1 hour at 56° C.
# (§7) This test is based on the mitochondrial reduction by living metabolically active cells of the MTT (3-(4,5-dimethylthiazol-2-yl)-2,5-diphenyltetrazolium bromide) of yellowish colour into a blue coloured product, formazan. The quantity of formazan obtained is directly proportional to the number of living cells. After incubation of the cells for 24 hours in microplates with 96 flat bottomed wells, the culture medium is replaced by 100 μl of fresh culture medium containing the drug to be tested.
# (§8) The microplates are then incubated for 3 hours at 37° C. and centrifuged for 10 minutes at 400 g (GPR centrifuge, Beckman). The MTT solution is replaced by 100 μl of dimethylsulphoxide (Merck). The microplates are agitated (Vari-Shaker, Dynatech) for 10 minutes.
# (§9) In the microplates, the control cells like the treated cells were incubated in a medium without the compounds to be tested for 24 hours. The control cells are incubated in a medium without a drug throughout the whole experiment, while the treated cells are incubated in different media. These media contain the molecule to be tested at various concentrations: 10^-8 M, 10^-6 M and 10^-4 M. All the tests are carried out in 6 duplicates.
# (§10) The statistical comparisons are carried out according to the Fisher Test:
# (§11) The mean optical density measured for each experimental condition is expressed as a percentage in relation to the laid down control condition being equal to 100%.
# [6] = tested on: T-47D human mammary cancer cells; assay: MTT test, proliferation of T-47D; format: cell-based
# Method: as §5, §6, §7, §8, §9, §10, §11
# [7] = cited from earlier work
# [8] = tested on: A-427 human pulmonary cancer cells; assay: MTT test, proliferation of A-427; conditions: Homo sapiens, A-427, 72 h, read-out: level of proliferation
# [9] = tested on: A549 human pulmonary cancer cells; assay: MTT test, proliferation of A549; format: cell-based
# [10] = Homo sapiens, A549, 72 h, read-out: level of proliferation
smiles,measurement,setting,value
"C/C(=C/c1ccc2c(c1)C(C)(C)CCC2(C)C)c1ccc(C(=O)O)s1 [CB30382, (Z) 2-[1-(5,6,7,8-tetrahydro-5,5,8,8-tetramethyl-2-naphthalenyl)-2-propenyl]thienyl-5-carboxylic acid]",RAR-ERcassette RARβ transactivation,RARβ-ERcassette; 10^-6 M,130%
same,RAR-ERcassette RARβ transactivation,RARβ-ERcassette; 10^-7 M,39%
same,RAR/RXR activity profile (in words),RAR and RXR receptors,panagonistic
same,RAR-ERcassette RARγ transactivation,RARγ-ERcassette; 10^-6 M,83%
same,RAR-ERcassette RARγ transactivation,RARγ-ERcassette; 10^-7 M,29%
same,inhibition,"[1]; Homo sapiens, MCF7, 10^-6 M, cells activated by 10^-9 M estradiol",2 to 20%
same,inhibition at 0.1 µM,"[1]; Homo sapiens, MCF7, 10^-7 M, cells activated by 10^-9 M estradiol, read-out: anti-oestrogenic effect, inhibition",0%
same,anti-oestrogenic effect (in words),[1]; estradiol-activated MELN cells,permit a transrepression of a controlled gene by an ERE
same,inhibition at 1 µM,"[2]; Homo sapiens, MCF7, 10^-6 M, cells activated by 10^-7 M TPA, range of several experiments",42 to 47%
same,inhibition at 0.1 µM,"[2]; Homo sapiens, MCF7, 10^-7 M, cells activated by 10^-7 M TPA, range of several experiments, read-out: anti-AP-1 effect, inhibition",21%
same,anti-AP-1 effect (in words),[2]; TPA-activated MTLN cells,exert an inhibitor effect comparable to that of the effect of CB28628
same,RAR-ERcassette profile (in words),[3],induce a transactivation mediated by the three receptors
same,RAR-ERcassette RARα transactivation,RARα-ERcassette; 10^-6 M,93%
same,RAR-ERcassette RARα transactivation,RARα-ERcassette; 10^-7 M,12%
same,activity at 1 µM,T-47D cells,73 to 94%
same,HRLN transactivation (in words),[4],induce a transactivation close to that of TTNPB
same,Emax,"[4]; Homo sapiens, HeLa, read-out: HRLN transactivation, E max",102%
"CC1=C(/C=C/C(C)=C/C=C/C(C)=C\C(=O)O)C(C)(C)CCC1 [CB81808, 13-cis retinoic acid, reference compound]",activity at 100 µM,"[5]; Homo sapiens, ZR-75-1, 10^-4 M, 72 h, control = 100%, read-out: level of proliferation",2.3%
same,activity at 1 µM,"[5]; Homo sapiens, ZR-75-1, 10^-6 M, 72 h, control = 100%, read-out: level of proliferation",55%
same,activity at 0.01 µM,"[5]; Homo sapiens, ZR-75-1, 10^-8 M, 72 h, control = 100%, read-out: level of proliferation",41.6%
same,"effect on cellular increase, ZR-75-1 (in words)",[5]; MTT test,inhibit the cellular increase of the two mammary lineages at the concentrations tested
same,activity at 100 µM,"[6]; Homo sapiens, T47D, T-47D, 10^-4 M, 72 h, control = 100%, read-out: level of proliferation",9.94%
same,activity at 1 µM,"[6]; Homo sapiens, T47D, T-47D, 10^-6 M, 72 h, control = 100%, read-out: level of proliferation",51.8%
same,activity at 0.01 µM,"[6]; Homo sapiens, T47D, T-47D, 10^-8 M, 72 h, control = 100%, read-out: level of proliferation",70.3%
same,"effect on cellular increase, T-47D (in words)",[6]; MTT test,inhibit the cellular increase of the two mammary lineages at the concentrations tested
same,adverse effects in chronic treatment (in words),[7],"powerful effect of hypervitaminose, of mucocutaneous toxicity and of teratogenecity"
same,activity at 0.01 µM,[8],100%
same,activity at 1 µM,[8],99.6%
same,activity at 100 µM,[8],6.5%
same,activity at 0.01 µM,[9]; [10],77.6%
same,activity at 1 µM,[9]; [10],85.9%
same,activity at 100 µM,[9]; [10],23.6%
same,"effect on cellular increase, A549 (in words)",[9]; MTT test,inhibit the proliferation of the A549 lineage at 10^-6 M and 10^-8 M
